From patent US7563895B2, “Quinoxaline compounds” (Janssen Pharmaceutica, N.V., priority 2003, dated 2009)

target: T1, CCK2 receptor (Homo sapiens, UniProt P32239); test: CCK2 receptor radioligand binding assay ([125I]-BH-CCK-8S, HEKZFP cell membranes); details: competition with [125I]-BH-CCK-8S, membranes of induced HEKZFP cells, 60 min at 21±3° C., Cheng-Prusoff
T1 construct: Membranes were prepared from the HEKZFP cells after induction; endogenous in cells; host or cells: HEKZFP cells (T-REx-293 with tet-inducible ZFP-VP16 specific for the CCK2R gene), doxycycline-induced; membrane preparation
T1 sequence (P32239 1-447): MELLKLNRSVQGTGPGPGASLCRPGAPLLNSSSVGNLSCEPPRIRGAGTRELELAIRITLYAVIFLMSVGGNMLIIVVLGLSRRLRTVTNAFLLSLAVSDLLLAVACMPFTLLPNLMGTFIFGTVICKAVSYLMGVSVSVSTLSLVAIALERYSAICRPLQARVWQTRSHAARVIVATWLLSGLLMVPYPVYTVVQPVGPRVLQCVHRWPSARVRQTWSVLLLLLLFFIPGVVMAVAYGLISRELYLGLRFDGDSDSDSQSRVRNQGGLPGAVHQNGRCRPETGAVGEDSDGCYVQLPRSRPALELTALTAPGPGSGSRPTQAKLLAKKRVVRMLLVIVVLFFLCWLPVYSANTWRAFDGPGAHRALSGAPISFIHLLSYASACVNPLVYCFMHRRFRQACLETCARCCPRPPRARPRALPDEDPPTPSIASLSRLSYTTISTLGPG
Description: Zinc Finger Proteins (ZFP) specific for the CCK2R gene were identified by Sangamo Biosciences. The ZFP domain was fused with the herpes simplex virus VP16 activation domain, and the fusion protein was subsequently cloned into the pcDNA3 mammalian expression vector (Invitrogen, San Diego, Calif.). […] After 2 weeks of selection in culture medium containing […] Zeocin (Invitrogen), sixty drug-resistant stable clones were isolated and analyzed for ZFP expression as well as CCK2R induction upon addition of doxycycline to the culture medium.
HEKZFP cells were grown in DMEM supplemented with L-glutamine (2 mM), penicillin (50 units/mL) and streptomycin (50 μg/mL) and 10% FBS (v/v).
Membranes were prepared from the HEKZFP cells after induction. […] The thawed pellets were homogenized using a Polytron PT-10 (7×1 s). The homogenates were centrifuged for 5 min at 1500 rpm (600×g), and the resulting pellets were discarded. The supernatants were re-centrifuged in order to collect the receptor-membrane pellets (25 min 15,000 rpm; 39,800×g), which were re-suspended in buffer A.
The assay preparation was incubated for 1 h at 21±3° C., and then the assay was terminated by rapid filtration of the preparation under reduced pressure. The loaded filters were washed three times using undiluted PBS (100 μL), and then 100 μL of scintillation fluid was added to the filter plate. Bound radioactivity was determined using a Topcount (Packard BioScience, Meriden, Conn.) with a count time of 1 min. […] To validate the radioligand concentration and incubation time for the assay, saturation and kinetic binding studies were also conducted (see M. F. Morton, The Pharmacological Characterization of Cholecystokinin Receptors in the Human Gastrointestinal Tract. PhD Thesis, University of London, 2000). […] The assay was then terminated according to the procedure outlined above.
The pKi values were determined using the equation of Y.-C.
To circumvent problems associated with computer-assisted data analysis of compounds with low affinity, the data obtained in the current study were weighed according to a method described by Morton. In brief, 100% and 0% specific binding were defined independently using total binding and binding obtained in the presence of a high concentration of the reference antagonist, 2-NAP.

| Ki | pKi | Compound |
| --- | --- | --- |
| 39.8 nM | – | C[C@H](NC(=O)c1ccc(Cl)cc1NS(=O)(=O)c1cccc2nccnc12)c1ccc(Cl)cc1Cl [Example 9, (S)-4-Chloro-N-[1-(2,4-dichlorophenyl)ethyl]-2-(quinoxaline-5-sulfonylamino)-benzamide] |
| 12.6 nM | – | C[C@H](c1ccccc1)N(C)C(=O)c1ccc(Br)cc1NS(=O)(=O)c1cccc2nccnc12 [Example 33, (R)-4-Bromo-N-methyl-N-(1-phenyl-ethyl)-2-(quinoxaline-5-sulfonylamino)-benzamide] |
| 316 nM | – | O=C(c1ccc(I)cc1NS(=O)(=O)c1cccc2nccnc12)N1CCC(O)CC1 [Example 26, Quinoxaline-5-sulfonic acid [2-(4-hydroxy-piperidine-1-carbonyl)-5-iodo-phenyl]-amide] |
| 63.1 nM | – | O=C(NCc1ccc(F)cc1F)c1ccc(Br)cc1NS(=O)(=O)c1cccc2nccnc12 [Example 17, 4-Bromo-N-(2,4-difluoro-benzyl)-2-(quinoxaline-5-sulfonylamino)-benzamide] |
| 15.8 nM | – | C[C@@H](NC(=O)c1cc(Cl)c(Cl)cc1NS(=O)(=O)c1cccc2nccnc12)c1ccc(F)cc1F [Example 5, (R)-4,5-Dichloro-N-[1-(2,4-difluorophenyl)ethyl]-2-(quinoxaline-5-sulfonylamino)-benzamide] |
| – | 7.4 | O=C(NCc1ccc(F)cc1F)c1ccc(I)cc1NS(=O)(=O)c1cccc2nccnc12 [Example 57, N-(2,4-Difluoro-benzyl)-4-iodo-2-(quinoxaline-5-sulfonylamino)-benzamide] |
| 200 nM | – | C[C@@H](NC(=O)c1ccc(F)cc1NS(=O)(=O)c1cccc2nccnc12)c1ccc(Cl)cc1Cl [Example 37, (R)—N-[1-(2,4-Dichlorophenyl)-ethyl]-4-fluoro-2-(quinoxaline-5-sulfonylamino)-benzamide] |
| 501 nM | – | O=C(N[C@@H](c1ccc(F)cc1F)C(F)(F)F)c1ccc(Cl)cc1NS(=O)(=O)c1cccc2nccnc12 [Example 29, (S)-4-Chloro-N-[1-(2,4-difluoro-phenyl)-2,2,2-trifluoroethyl]-2-(quinoxaline-5-sulfonylamino)-benzamide] |
| 7.94 nM | – | C[C@H](c1ccccc1)N(C)C(=O)c1ccc(I)cc1NS(=O)(=O)c1cccc2nccnc12 [Example 34, (R)-4-Iodo-N-methyl-N-(1-phenyl-ethyl)-2-(quinoxaline-5-sulfonylamino)-benzamide] |
| 50.1 nM | – | O=C(N[C@H](CF)c1ccc(F)cc1F)c1ccc(I)cc1NS(=O)(=O)c1cccc2nccnc12 [Example 77, (S)-N-[1-(2,4-Difluoro-phenyl)-2-fluoro-ethyl]-4-iodo-2-(quinoxaline-5-sulfonylamino)-benzamide] |
| 398 nM | – | O=C(c1ccc(I)cc1NS(=O)(=O)c1cccc2nccnc12)N1CCOc2cc(F)cc(F)c2C1 [Example 94, Quinoxaline-5-sulfonic acid [2-(6,8-difluoro-2,3-dihydro-5H-benzo[f][1,4]oxazepine-4-carbonyl)-5-iodo-phenyl]-amide] |
| 316 nM | – | C[C@@H]1COC[C@H](C)N1C(=O)c1ccc(I)cc1NS(=O)(=O)c1cccc2nccnc12 [Example 25, (R,S)-Quinoxaline-5-sulfonic acid [2-(3,5-dimethylmorpholine-4-carbonyl)-5-iodophenyl]-amide] |
| – | 7.5 | O=C(c1ccc(I)cc1NS(=O)(=O)c1cccc2nccnc12)N1CCOCC1 [Example 6, Quinoxaline-5-sulfonic acid [5-iodo-2-(morpholine-4-carbonyl)-phenyl]-amide] |
| 31.6 nM | – | O=C(NC(CF)c1ccc(F)cc1F)c1ccc(Br)cc1NS(=O)(=O)c1cccc2nccnc12 (stereo not drawn) [Example 74, 4-Bromo-N-[1-(2,4-difluoro-phenyl)-2-fluoro-ethyl]-2-(quinoxaline-5-sulfonylamino)-benzamide] |
| 79.4 nM | – | O=C(N[C@H](CF)c1ccc(F)cc1)c1ccc(I)cc1NS(=O)(=O)c1cccc2nccnc12 [Example 73, (S)-N-[2-Fluoro-1-(4-fluoro-phenyl)-ethyl]-4-iodo-2-(quinoxaline-5-sulfonylamino)-benzamide] |
| 25.1 nM | – | CC(NC(=O)c1ccc(Br)cc1NS(=O)(=O)c1cccc2nccnc12)c1ccc(F)cc1 (stereo not drawn) [Example 53, 4-Bromo-N-[1-(4-fluoro-phenyl)-ethyl]-2-(quinoxaline-5-sulfonylamino)-benzamide] |
| 79.4 nM | – | C[C@@H]1COCCN1C(=O)c1ccc(Br)cc1NS(=O)(=O)c1cccc2nccnc12 [Example 12, (R)-Quinoxaline-5-sulfonic acid [5-bromo-2-(3-methylmorpholine-4-carbonyl)-phenyl]-amide] |
| 251 nM | – | O=C(c1ccc(Cl)cc1NS(=O)(=O)c1cccc2nccnc12)N1CCOc2cc(F)cc(F)c2C1 [Example 40, Quinoxaline-5-sulfonic acid [5-chloro-2-(6,8-difluoro-2,3-dihydro-5H-benzo[f][1,4]oxazepine-4-carbonyl)-phenyl]-amide] |
| 12.6 nM | – | C[C@@H](NC(=O)c1ccc(Cl)cc1NS(=O)(=O)c1cccc2nccnc12)c1ccc(F)cc1F [Example 3, (R)-4-Chloro-N-[1-(2,4-difluorophenyl)-ethyl]-2-(quinoxaline-5-sulfonylamino)-benzamide] |
| 251 nM | – | C[C@H]1COCCN1C(=O)c1ccc(I)cc1NS(=O)(=O)c1cccc2nccnc12 [Example 23, (S)-Quinoxaline-5-sulfonic acid [5-iodo-2-(3-methylmorpholine-4-carbonyl)-phenyl]-amide] |
| – | 7.2 | O=C(c1ccc(Br)cc1NS(=O)(=O)c1cccc2nccnc12)N1CCOCC1 [Example 11, (R)-Quinoxaline-5-sulfonic acid [5-bromo-2-(morpholine-4-carbonyl)-phenyl]-amide] |
| 50.1 nM | – | C[C@H](NC(=O)c1ccc(I)cc1NS(=O)(=O)c1cccc2nccnc12)c1ccc(Cl)cc1Cl [Example 66, (S)-N-[1-(2,4-Dichloro-phenyl)-ethyl]-4-iodo-2-(quinoxaline-5-sulfonylamino)-benzamide] |
| 126 nM | – | O=C(c1ccc(Br)cc1NS(=O)(=O)c1cccc2nccnc12)N1CCCCCC1 [Example 21, Quinoxaline-5-sulfonic acid [2-(azepane-1-carbonyl)-5-bromophenyl]-amide] |
| 79.4 nM | – | O=C(c1ccc(Br)cc1NS(=O)(=O)c1cccc2nccnc12)N1CCOc2cc(F)ccc2C1 [Example 39, Quinoxaline-5-sulfonic acid [5-bromo-2-(8-fluoro-2,3-dihydro-5H-benzo[f][1,4]oxazepine-4-carbonyl)phenyl]-amide] |
| 25.1 nM | – | C[C@@H](NC(=O)c1ccc(I)cc1NS(=O)(=O)c1cccc2nccnc12)c1ccc(Cl)cc1Cl [Example 64, (R)-N-[1-(2,4-Dichloro-phenyl)-ethyl]-4-iodo-2-(quinoxaline-5-sulfonylamino)-benzamide] |
| 25.1 nM | – | O=C(c1ccc(I)cc1NS(=O)(=O)c1cccc2nccnc12)N1CCCCC1 [Example 4, Quinoxaline-5-sulfonic acid [5-iodo-2-(piperidine-1-carbonyl)-phenyl]-amide] |
| 79.4 nM | – | O=C(c1cc(Cl)c(Cl)cc1NS(=O)(=O)c1cccc2nccnc12)N1CCOCC1 [Example 20, Quinoxaline-5-sulfonic acid [4,5-dichloro-2-(morpholine-4-carbonyl)-phenyl]-amide] |
| 63.1 nM | – | CC(NC(=O)c1ccc(Br)cc1NS(=O)(=O)c1cccc2nccnc12)c1ccc(Cl)cc1 (stereo not drawn) [Example 50, 4-Bromo-N-[1-(4-chloro-phenyl)-ethyl]-2-(quinoxaline-5-sulfonylamino)-benzamide] |
| 100 nM | – | O=C(N[C@H](CF)c1ccc(F)cc1)c1ccc(Cl)cc1NS(=O)(=O)c1cccc2nccnc12 [Example 72, (S)-4-Chloro-N-[2-fluoro-1-(4-fluoro-phenyl)-ethyl]-2-(quinoxaline-5-sulfonylamino)-benzamide] |
| 31.6 nM | – | CN(Cc1ccc(F)cc1)C(=O)c1ccc(Br)cc1NS(=O)(=O)c1cccc2nccnc12 [Example 45, 4-Bromo-N-(4-fluoro-benzyl)-N-methyl-2-(quinoxaline-5-sulfonylamino)-benzamide] |
